Earlier results as cited in patent US20180242917A1, “SYSTEMS AND METHODS FOR DETERMINING IMAGE QUALITY AND MODELS BASED ON CONTRAST INJECTION PROTOCOLS” (Duke University, priority 2015, published 2018).

Parameters: unit not given here
Settings: used to calculate total EC fluid volume (18.9 L incl. 3 L plasma) for a 70-kg adult patient

apparent volume value of distribution: 0.27
SMILES: CC(=O)N(CC(O)CO)c1c(I)c(C(=O)NCC(O)CO)c(I)c(C(=O)NCC(O)CO)c1I (stereo not shown) [iohexol]
